Test results from US11001591B2, “TRAF 6 inhibitors” (HELMHOLTZ ZENTRUM MUENCHEN—DEUTSCHES FORSCHUNGSZENTRUM FÜR …, priority 2016, dated 2021).

Key:
p-IκBα (Ser32/36) = assay: ALPHASurefire p-IκBα in IL-1β stimulated MEF cells; type: cell-based, mouse; conditions: compared with C25, C25-189, C25-167; FIG. 1C
Description: In order to detect protein levels of p-IκBα (Ser32/36) as well as total IκBα, 1×10^4 MEF cells were seeded in 96-well plates, treated with compound for 6 hours and stimulated with 1 ng/ml IL-1β for 7 minutes. The p-IκBα and total IκBα protein levels were analyzed using the ALPHASurefire kits (PerkinElmer) following the manufacturer's instruction. The general 2-plate protocol was conducted.

TRAF6 = biological target: T1, TRAF6 (Homo sapiens, UniProt Q9Y4K3); assay: In vitro ubiquitination assay (Western blot), TRAF6 with Ubc13/Uev1a; type: biochemical
T1 construct: made in house
T1 sequence (Q9Y4K3 50-159 limits assumed, species assumed): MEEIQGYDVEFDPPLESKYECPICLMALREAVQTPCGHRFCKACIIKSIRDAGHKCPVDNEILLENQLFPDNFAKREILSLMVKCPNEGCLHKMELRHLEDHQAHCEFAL
Description: The ability of TRAF6 to form K63-linked poly-ubiquitin chains in conjunction with Ubc13 was analyzed after compound treatment. Therefore, untagged TRAF6WT and TRAF6D57K, respectively were recombinantly purified. 0.125 μM of TRAF6 protein was pre-incubated with DMSO or compound in a total volume of 100 μL in K63 assay buffer (25 nM Tris-HCl pH 7.6; 250 nM MgCL2; […] creatine phosphate; 0.3 U/mL inorganic pyrophosphatase; 0.3 U/mL creatine phosphokinase) for 30 minutes at room temperature. Small aliquots for input samples were taken. A master mix containing 0.01 μM E1-activating enzyme (UBE1) (Boston Biochem), 0.2 μM E2-conjugating enzyme complex (Ubc13/Uev1a) (Boston Biochem), 1 mM ZnCl2, 2 mM ATP und 4 μM mono-ubiquitin (Boston Biochem) was added to the TRAF6 protein and the reaction mixture was incubated for 120 minutes at 37° C. The reaction was stopped by adding 4×SDS loading buffer and boiling at 95° C. for 5 minutes. The input samples were analyzed using the Pierce Silver Stain Kit (Thermo Fisher Scientific). Ubiquitination was detected in Western Blot analysis using an ubiquitin antibody.

[1] = system: 24 different Ubiquitin reaction cascades; assay: Ubiquitin Profiler (Eurofins); type: biochemical; conditions: 30 μM compound
Description: C25-140 was sent to Eurofins Pharma Discovery Services UK to perform a Single Point Ubiquitin Profiler testing of C25-140 effect at a concentration of 30 μM on 24 different Ubiquitin reaction cascades employing distinct combinations of E2, E3 and substrate. Each reaction was measured in duplicates. Cascade activity is expressed as a percentage of the mean cascade activity in the positive control samples. The positive control value is considered to be 100%, and all test samples are referred to this value.

[2] = system: primary naïve CD4+ T-cells; assay: IL-2 in primary murine CD4+ T-cells; type: cell-based, mouse; conditions: CD3/CD28 stimulation
Description: For MEF cells, 1.2×10^5 cells per sample were seeded, treated with compound for 6 hours and stimulated with either IL-1β or TNFα for 60 minutes. […] RNA was isolated according to the manufacturer's protocol of the Qiagen RNeasy Kit (MEF cells) or the STRATEC INVITRAP® SPIN UNIVERSAL RNA MINI KIT (Jurkat T-cells). The isolation of mRNA from […] white adipose tissue from DIO mice was performed using TRIzol® Reagent according to manufacturer's instruction. To clear the isolated RNA from genomic DNA, samples (up to 5 μg RNA) were treated with RQ1 RNase-Free DNaseI (Promega) as described in the technical manual. […] For quantification of cDNA in the samples, the LightCylcer480 (Roche) and the KAPA SYBR FAST qPCR Kit were used. For relative quantification, the ΔΔCp method first described by Pfaffl (Pfaffl, M. W., A new mathematical model for relative quantification in real-time RT-PCR. Nucleic Acids Res, 2001. 29(9): p. e45) was applied. […]
For measurement of cytokine secretion, 2×10^5 Jurkat T-cells or primary CD4^+ T-cells or human PBMCs per sample were seeded, treated with compound for 6 hours and stimulated as indicated. 20 hours after stimulation, supernatants were harvested and analyzed with the IL-2, IL-1β and TNFα Ready-Set-Go! […]

Microsomal stability = type: in vitro ADME
Description: All ADME (plasma stability, plasma protein binding, microsomal stability, Log D, Caco-2 assay, CYP450 inhibition and hERG predictor assay) as well as pharmacokinetic studies (Tmax, Cmax, AUC0-240 min, Mean Residence Time, Elimination half life, Elimination rate constant, Volume of Distribution and Clearance) of C25-140 (compound 3) were conducted by Bienta Enamine Biology Services of Bienta/Enamine Ltd.

[3] = system: Collagen-Induced Arthritis, DBA1/J mice; assay: Collagen-Induced Arthritis (CIA) model; type: in vivo, mouse
Description: In order to test the potential of C25-140 to ameliorate RA symptoms, a Collagen-Induced Arthritis (CIA) Model in DBA1/J mice was performed by Washington Biotechnology, Inc. (Baltimore, USA). Each group of ten mice was subjected to a single subcutaneous injection of collagen/complete Freund's Adjuvant emulsion (0.05 ml/mouse; 100 μg collagen/CFA). After 20 days (day 21), mice were booster injected with collagen (0.05 ml/mouse; 100 μg/mouse collagen in Incomplete Freund's Adjuvant). On day 28, mice were scored for their Arthritic Index (AI) and 14 days intraperitoneally dosed twice daily with 6 mg/kg, 10 mg/kg and 14 mg/kg C25-140, respectively. Mice were scored of macroscopic signs of arthritis daily. Thereby, the following scoring index was applied to each individual paw: 0=no visible effects of arthritis; 1=edema and/or erythema of 1 digit; 2=edema and/or erythema of 2 digits; 3=edema and/or erythema of more than 2 digits; 4=severe arthritis of entire paw and digits. Single paw scores were added and recorded. On day 42, animals were euthanized, limbs were collected and histopathology was performed using Toluidine blue staining with scoring of several parameters.

TRAF6 E3 ligase activity to form poly-ubiquitin chains (TRAF6): dose-dependently diminished | microsomal stability (Microsomal stability): stable
Compound: Cc1nn(-c2ccc3nnc(C)n3n2)c(C)c1CCC(=O)N1CCC(Cc2ccccc2)CC1 [Compound 3, 1-(4-benzylpiperidin-1-yl)-3-(3,5-dimethyl-1-(3-methyl-[1,2,4]triazolo[4,3-b]pyridazin-6-yl)-1H-pyrazol-4-yl)propan-1-one]
p-IκBα protein levels, ALPHASurefire (p-IκBα (Ser32/36)): more active | inhibition of ubiquitination cascades, Ubiquitin Profiler panel [1]: None of the reactions is considerably inhibited | IL-2 mRNA expression [2]: impaired | IL-2 protein secretion [2]: impaired | arthritic index (AI) ([3]; 10 mg/kg and 14 mg/kg IP twice daily, 14 days): almost completely ameliorated | histology of limbs (summed scores, inflammation, pannus, cartilage damage, bone resorption) ([3]; 6, 10, 14 mg/kg IP twice daily): dose-dependently improves | body weight ([3]; throughout the study): did not show any signs of reduction
